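Grown in 96-well plates, cells were treated for 48 hours with each compound at five concentrations. Insufficient inhibition: endpoint recorded as highest concentration tested. Here, GI50 denotes the concentration required for 50% inhibition of growth.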 The source made the active and inactive calls. Rule as the data show it: active = GI50 up to about 1.1 µM and inactive = higher.
Tests used:
Experiment in all cases: NCI-60 cell line screen, 48 h
[1] = test system: 786-0
[2] = test system: A498
[3] = test system: A549
[4] = test system: ACHN
[5] = test system: DU-145
[6] = test system: HCC 2998
[7] = test system: HT-29
[8] = test system: IGROV-1
[9] = test system: MDA-MB-435
[10] = test system: Malme-3M
[11] = test system: NCI-H23
[12] = test system: NCI-H522
[13] = test system: PC-3
[14] = test system: RPMI-8226
[15] = test system: RXF 393
[16] = test system: SK-MEL-2
[17] = test system: SK-MEL-5
[18] = test system: TK-10
[19] = test system: U-251
[20] = test system: UACC-62

Structure (SMILES)	GI50 [1]	GI50 [2]	GI50 [3]	GI50 [4]	GI50 [5]	GI50 [6]	GI50 [7]	GI50 [8]	GI50 [9]	GI50 [10]	GI50 [11]	GI50 [12]	GI50 [13]	GI50 [14]	GI50 [15]	GI50 [16]	GI50 [17]	GI50 [18]	GI50 [19]	GI50 [20]
C/C=C(\C)C(O)C(C)C(O)C/C=C(C)/C=C(\C)C/C(C)=C/C/C=C(\C)C(O)C(C)c1ccc(CCC)c(=O)o1 (stereo not given)	20.8 µM (inactive)	14.7 µM (inactive)	3.57 µM (inactive)	< 0.01 µM (active)	< 0.01 µM (active)	12.9 µM (inactive)	1.69 µM (inactive)	14.6 µM (inactive)	9.12 µM (inactive)	9.25 µM (inactive)	< 0.01 µM (active)	2 µM (inactive)	3.5 µM (inactive)	16.1 µM (inactive)	26.7 µM (inactive)	23.8 µM (inactive)	1.14 µM (inactive)	17.5 µM (inactive)	11.4 µM (inactive)	9.86 µM (inactive)
CC1OC(OC2C(CO)OC(O[C@H]3CC[C@@]4(C)C(=CC[C@H]5[C@@H]6C[C@@H]7O[C@](O)(CC[C@H](CO)COC8OC(CO)C(O)C(O)C8O)[C@@H](C)[C@@H]7[C@@]6(C)CC[C@@H]54)C3)C(OC3OC(C)C(O)C(O)C3O)C2O)C(O)C(O)C1O (stereo not given in full)	> 100 µM (inactive)	> 100 µM (inactive)	> 100 µM (inactive)	> 100 µM (inactive)	> 100 µM (inactive)	> 100 µM (inactive)	> 100 µM (inactive)	> 100 µM (inactive)	> 100 µM (inactive)	> 100 µM (inactive)	> 100 µM (inactive)	> 100 µM (inactive)	> 100 µM (inactive)	> 100 µM (inactive)	> 100 µM (inactive)	> 100 µM (inactive)	> 100 µM (inactive)	> 100 µM (inactive)	> 100 µM (inactive)	> 100 µM (inactive)
COc1ccc2c3c1O[C@H](c1ccc(O)cc1)[C@H]3[N+](C)(C)CC2	> 100 µM (inactive)	> 100 µM (inactive)	> 100 µM (inactive)	> 100 µM (inactive)	> 100 µM (inactive)	> 100 µM (inactive)	> 100 µM (inactive)	> 100 µM (inactive)	> 100 µM (inactive)	> 100 µM (inactive)	46.6 µM (inactive)	42.8 µM (inactive)	75.5 µM (inactive)	47.4 µM (inactive)	> 100 µM (inactive)	> 100 µM (inactive)	86.3 µM (inactive)	> 100 µM (inactive)	> 100 µM (inactive)	> 100 µM (inactive)
NC(Cc1c[nH]c2ccccc12)P(=O)(O)O (stereo not given)	> 100 µM (inactive)	> 100 µM (inactive)	> 100 µM (inactive)	> 100 µM (inactive)	> 100 µM (inactive)	> 100 µM (inactive)	> 100 µM (inactive)	> 100 µM (inactive)	> 100 µM (inactive)	> 100 µM (inactive)	> 100 µM (inactive)	> 100 µM (inactive)	> 100 µM (inactive)	> 100 µM (inactive)	> 100 µM (inactive)	> 100 µM (inactive)	> 100 µM (inactive)	> 100 µM (inactive)	> 100 µM (inactive)	> 100 µM (inactive)
CCCCCCCCCCCCCCCCCCNc1ccn(C2OC(CO)C(O)C2O)c(=O)n1 (stereo not given)	> 100 µM (inactive)	> 100 µM (inactive)	79.8 µM (inactive)	> 100 µM (inactive)	> 100 µM (inactive)	50.5 µM (inactive)	> 95.5 µM (inactive)	14.9 µM (inactive)	> 100 µM (inactive)	> 100 µM (inactive)	> 100 µM (inactive)	19.8 µM (inactive)	2.45 µM (inactive)	34 µM (inactive)	7.66 µM (inactive)	> 100 µM (inactive)	> 100 µM (inactive)	> 100 µM (inactive)	38.6 µM (inactive)	> 100 µM (inactive)
CCCCOc1ccc(/C=C/C2=[N+](CCO)CCO2)cc1	54.1 µM (inactive)	> 100 µM (inactive)	55.3 µM (inactive)	91.6 µM (inactive)	> 100 µM (inactive)	22.5 µM (inactive)	17.6 µM (inactive)	85.5 µM (inactive)	> 100 µM (inactive)	80 µM (inactive)	> 100 µM (inactive)	21.5 µM (inactive)	68.4 µM (inactive)	26.8 µM (inactive)	17.9 µM (inactive)	> 100 µM (inactive)	68.5 µM (inactive)	> 100 µM (inactive)	34.4 µM (inactive)	> 100 µM (inactive)
O=C1NC(N/N=C/c2ccccc2)=N/C1=C\c1ccco1	22.3 µM (inactive)	> 100 µM (inactive)	27.7 µM (inactive)	21.9 µM (inactive)	32.9 µM (inactive)	32.1 µM (inactive)	51.9 µM (inactive)	16.9 µM (inactive)	51.9 µM (inactive)	> 100 µM (inactive)	26.4 µM (inactive)	26.1 µM (inactive)	33.9 µM (inactive)	21.1 µM (inactive)	25.1 µM (inactive)	25.9 µM (inactive)	45.9 µM (inactive)	31.5 µM (inactive)	24.8 µM (inactive)	28.7 µM (inactive)
CCOC(=O)c1cc2nc3ccccc3c(=O)n2c2ccccc12	> 10 µM (inactive)	> 10 µM (inactive)	> 10 µM (inactive)	> 10 µM (inactive)	> 10 µM (inactive)	> 10 µM (inactive)	> 10 µM (inactive)	> 10 µM (inactive)	> 10 µM (inactive)	> 10 µM (inactive)	> 10 µM (inactive)	> 10 µM (inactive)	> 10 µM (inactive)	> 10 µM (inactive)	> 10 µM (inactive)	> 10 µM (inactive)	> 10 µM (inactive)	> 10 µM (inactive)	> 10 µM (inactive)	> 10 µM (inactive)
C/C=C/C=C/C1=NN(c2cccc(S(=O)(=O)O)c2)C2(C1)C(Cl)C(=O)N2c1nc2ccccc2s1 (stereo not given)	13.8 µM (inactive)	16.3 µM (inactive)	14.6 µM (inactive)	15.4 µM (inactive)	13.4 µM (inactive)	16.9 µM (inactive)	17 µM (inactive)	11 µM (inactive)	13.4 µM (inactive)	17.1 µM (inactive)	15.1 µM (inactive)	4.22 µM (inactive)	13.5 µM (inactive)	17.3 µM (inactive)	6.3 µM (inactive)	15.6 µM (inactive)	12.2 µM (inactive)	14.3 µM (inactive)	9.55 µM (inactive)	13 µM (inactive)
CSC(CC(=O)O)C(=O)O (stereo not given)	> 100 µM (inactive)	> 100 µM (inactive)	> 100 µM (inactive)	> 100 µM (inactive)	> 100 µM (inactive)	12.5 µM (inactive)	> 100 µM (inactive)	> 100 µM (inactive)	> 100 µM (inactive)	> 100 µM (inactive)	> 100 µM (inactive)	> 100 µM (inactive)	> 100 µM (inactive)	> 100 µM (inactive)	> 100 µM (inactive)	> 100 µM (inactive)	> 100 µM (inactive)	> 100 µM (inactive)	> 100 µM (inactive)	> 100 µM (inactive)
CCCCn1c(C)c2c(c1C)C(=O)N(CC(O)CN1CCc3ccccc3C1)C2=O (stereo not given)	45.8 µM (inactive)	29.8 µM (inactive)	88.3 µM (inactive)	36.7 µM (inactive)	> 100 µM (inactive)	39.8 µM (inactive)	37.8 µM (inactive)	> 100 µM (inactive)	60.1 µM (inactive)	93.3 µM (inactive)	56.5 µM (inactive)	> 100 µM (inactive)	56.6 µM (inactive)	76.9 µM (inactive)	67.6 µM (inactive)	0.292 µM (active)	31.5 µM (inactive)	67.3 µM (inactive)	81.5 µM (inactive)	60 µM (inactive)
COC(=O)C1C2OC(C)(C)OC2CN1S(=O)(=O)c1ccc(C)cc1 (stereo not given)	> 100 µM (inactive)	> 100 µM (inactive)	> 100 µM (inactive)	> 100 µM (inactive)	> 100 µM (inactive)	> 100 µM (inactive)	> 100 µM (inactive)	14.5 µM (inactive)	> 100 µM (inactive)	> 100 µM (inactive)	> 100 µM (inactive)	> 100 µM (inactive)	> 100 µM (inactive)	> 100 µM (inactive)	> 100 µM (inactive)	> 100 µM (inactive)	> 100 µM (inactive)	> 100 µM (inactive)	> 100 µM (inactive)	> 100 µM (inactive)
COc1cc2c(cc1OC)C(=O)/C(=C/c1cc(Cl)cc(Cl)c1)C2	4.73 µM (inactive)	17 µM (inactive)	12.1 µM (inactive)	7.91 µM (inactive)	10.6 µM (inactive)	0.351 µM (active)	2.59 µM (inactive)	2.65 µM (inactive)	1.7 µM (inactive)	8.51 µM (inactive)	7.66 µM (inactive)	2.04 µM (inactive)	4.03 µM (inactive)	4.94 µM (inactive)	7.41 µM (inactive)	23.5 µM (inactive)	2.54 µM (inactive)	55.3 µM (inactive)	5.32 µM (inactive)	3.39 µM (inactive)
c1ccc2c(NCCCCCCNc3c4ccccc4nc4ccccc34)c3ccccc3nc2c1	0.232 µM (active)	1.25 µM (inactive)	0.29 µM (active)	0.23 µM (active)	0.632 µM (active)	0.171 µM (active)	0.0287 µM (active)	0.166 µM (active)	0.887 µM (active)	1.17 µM (inactive)	0.274 µM (active)	0.0893 µM (active)	0.445 µM (active)	< 0.0358 µM (active)	0.191 µM (active)	1.26 µM (inactive)	1.4 µM (inactive)	1.34 µM (inactive)	0.276 µM (active)	0.695 µM (active)
